From PubChem BioAssay AID1645865 (Buhrlage Lab, Dana-Farber Cancer Institute and Novartis …, 2021) come the findings set out here.

As a reminder, the IC50 is the concentration at which inhibition is half-maximal.

Each structure is given as a SMILES string. Activity calls are given as the source filed them.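 The calls were made as follows: active = maximal inhibition of the USP30 enzyme reaching 30% or more across the dose series; inactive = the rest.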 Bounds are passed on as bounds.

In this experiment the target is Ubiquitin carboxyl-terminal hydrolase 30 (Homo sapiens) (UniProt Q70CQ3). Description: ubiquitin-specific protease 30 DUB inhibitors, concentration-effect, biochemical, validation of primary actives (AID 1645865). The settings on record: purified USP30, Ub-rhodamine cleavage, fluorescence, 2 h.
Sequence of Ubiquitin carboxyl-terminal hydrolase 30 (Homo sapiens) (Q70CQ3 whole entry, looked up): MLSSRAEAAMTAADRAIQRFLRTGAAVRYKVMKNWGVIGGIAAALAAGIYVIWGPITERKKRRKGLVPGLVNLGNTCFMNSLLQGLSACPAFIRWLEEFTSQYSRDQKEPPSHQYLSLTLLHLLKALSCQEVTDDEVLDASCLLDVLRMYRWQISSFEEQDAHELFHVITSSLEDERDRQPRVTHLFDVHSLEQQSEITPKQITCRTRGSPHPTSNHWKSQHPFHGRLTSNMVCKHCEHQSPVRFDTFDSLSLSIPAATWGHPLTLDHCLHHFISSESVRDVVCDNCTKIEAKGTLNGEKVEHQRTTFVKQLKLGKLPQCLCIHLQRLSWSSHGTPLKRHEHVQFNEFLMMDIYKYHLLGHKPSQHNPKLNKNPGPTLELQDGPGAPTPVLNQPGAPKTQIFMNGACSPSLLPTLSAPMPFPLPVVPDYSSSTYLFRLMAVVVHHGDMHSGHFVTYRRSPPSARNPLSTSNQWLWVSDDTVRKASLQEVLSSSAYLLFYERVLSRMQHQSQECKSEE

`CO/C1=C\C(C)=C/[C@@H](C)[C@@H](O)[C@@H](C)C/C(C)=C/C=C/[C@H](OC)[C@@H]([C@@H](C)[C@@H](O)[C@H](C)[C@@]2(O)C[C@@H](OC(=O)/C=C/C(N)=O)[C@H](C)[C@@H](C(C)C)O2)OC1=O`: the IC50 was > 50 µM (inactive).
As for `O=C(NC(Cc1ccccc1)c1nc2ccccc2[nH]1)C1CC1` (centres undefined), the IC50 is > 50 µM (inactive).
The same measure for `O=C(Nc1ccccc1-c1nc2ccccc2[nH]1)c1sc2ccccc2c1Cl`: 1.76 µM; for `Cc1nc2ccccn2c1C1(O)C(=O)Nc2c(Cl)cc(Cl)cc21` (centres undefined): > 50 µM (inactive); for `Cc1ccc(Nc2nc(C(=O)NCc3ccc4c(c3)OCO4)cc3occc23)cc1Cl`: > 50 µM (inactive).
The same measure for `Cc1c(-c2nnc(-c3ccccn3)o2)nnn1-c1cccc(Cl)c1`: 44.4 µM; for `O=C(CN1CCCc2ccccc21)Nc1ccc(N2CCOCC2)cc1`: > 50 µM (inactive); for `O=c1sc2ccccc2c(=O)n1Cc1cccc(C(F)(F)F)c1`: > 50 µM (inactive).
The same measure for `CCOc1ccc(NC(=O)Cn2c(=O)n(CC(=O)NCc3ccc(C)cc3)c(=O)c3sccc32)cc1`: 0.465 µM.
Take `Cc1nc(-c2ccc3c(c2)nnn3CCN2CCOCC2)no1`: the IC50 is > 50 µM (inactive).
The same measure for `Cc1cccc(C(=O)Nc2ccc3c(c2)nc(CSc2nccc(C)n2)n3C)c1`: > 50 µM (inactive); for `Cc1ccc(Cn2nnc(-c3ccccc3Cl)n2)cc1`: > 50 µM (inactive).
Turning to `O=c1c2cnc(N3CCCCC3)nc2ccn1CCc1ccccc1`, the IC50 was 2.44 µM.
On to `O=C(OCCCN1C(=O)c2cccc3c(N4CCCCC4)ccc(c23)C1=O)c1ccccn1`, for which the IC50 is > 50 µM (inactive).
The same measure for `Cc1ccc(NC(=O)c2ccn(COc3ccc(F)cc3)n2)nc1`: 24.8 µM.
With `O=C(CSc1ccc2nnc(-c3ccccc3)n2n1)N1CCCc2ccccc21` the figure was 10.7 µM; with `COc1ccc(NC(=O)Nc2cccc(-c3nnc(-c4ccccc4)o3)c2)cc1OC`, 8.55 µM; with `COc1ccccc1NC(=O)c1cc(-c2ccccn2)nc2ccccc12`, 16.5 µM.
With `Cc1cc(C)c2cc(C(=O)NC3CCN(Cc4ccccc4)CC3)[nH]c2c1` the figure was 8.5 µM; with `CCOc1ccc(NC(=O)Cn2cc(C(=O)c3ccc(Cl)cc3)c(=O)c3cc(OC)ccc32)cc1`, 0.975 µM; with `CCC(C)(C)C1CCC2(CC1)N=C(N)Nc1nc3ccccc3n12` (centres undefined), 28.6 µM.
Consider `COc1cccc(-n2cnc3cc(C(=O)NC4CC4)ccc3c2=O)c1`, for which the IC50 is > 50 µM (inactive).
The same measure for `O=C(/C=C/c1ccc(F)cc1)N1CCC(Cc2ccccc2)CC1`: 41.9 µM; for `Cc1ccc(-n2nnc(C(=O)NC3CCCCC3)c2N)cc1`: 21.4 µM.
Regarding `CC(C)OC(=O)c1cc2c(ccn2C)n1CC(=O)N1CCN(C(=O)c2ccco2)CC1`, the IC50 was > 50 µM (inactive).
With `Fc1ccc(Cc2nc(-c3ccc4nncn4c3)no2)cc1` the figure was > 50 µM (inactive); with `O=C(COc1nsnc1N1CCOCC1)Nc1ccccc1F`, > 50 µM (inactive); with `COc1ccc(C(=O)CCN2CCOCC2)cc1[N+](=O)[O-]`, > 50 µM (inactive).
With `Cc1ccccc1Cc1nc(-c2ccc(=O)[nH]c2)no1` the figure was > 50 µM (inactive); with `Fc1cccc(Cn2cc(-c3noc(-c4ccncc4)n3)nn2)c1`, 22.8 µM; with `Cc1cc(C)n(-c2cccc(C(=O)Nc3ccc4c(c3)CCN4S(C)(=O)=O)c2)n1`, > 50 µM (inactive).
Regarding `O=C(NCc1ccccc1Cl)c1ccc(-c2nnc(-c3ccccc3)o2)cc1`, the IC50 is 1.52 µM.
For the compound `Cc1cccc(CNC(=O)c2ccc(-c3nnc(-c4cccc(C)c4)o3)cc2)c1`, the IC50 is 5.57 µM.
With `Cc1ccc(NC(=O)/C=C/c2cccc(C(F)(F)F)c2)c(O)c1` the figure was 5.24 µM.
`COc1ccc(-c2cc(C(=O)N3CCN(c4ccc([N+](=O)[O-])cc4)CC3)[nH]n2)cc1`: the IC50 was > 50 µM (inactive).
The same measure for `COc1ccc(C(=O)N2CCCC3(C2)Nc2cccnc2NC3=NC2CCCC2)cn1` (centres undefined): > 50 µM (inactive).
The same measure for `O=C(Nc1cccc(F)c1)C1CCCN(S(=O)(=O)N2CCCCCC2)C1` (centres undefined): 36.4 µM; for `Cc1sc(NC(=O)CNc2ccccc2)nc1-c1ccc2c(c1)CCN2C(=O)C(C)C`: > 50 µM (inactive); for `Cc1cc(NCC2CC2)n2nc(Nc3cc(Cl)ccc3C)nc2n1`: 23.6 µM.
As to `CCOc1ccc(Nc2cc(C(=O)NCCc3ccccc3)c3ccccc3n2)cc1`, the IC50 is 13.6 µM.
The same measure for `Cc1ccc2c(=O)c(C(=O)Nc3ccccc3)cn(CC(=O)NC3CCCCC3)c2n1`: less than 0.05 µM; for `CC[C@H](C)C[C@H]1CC[C@](O)([C@](C)(O)C(=O)N[C@@H]2C(=O)N3NCCC[C@@H]3C(=O)N(O)[C@@H](C)C(=O)NCC(=O)N3NCCC[C@H]3C(=O)N(O)[C@H](C)C(=O)O[C@H]2C(C)C)O[C@@H]1C`: 2.09 µM; for `Cc1nn(CC(=O)Nc2ccc(Br)c3cccnc23)c(=O)c2ccccc12`: > 5 µM (inactive).
Consider `CC1CCCN(S(=O)(=O)c2cc3cc(F)ccc3oc2=O)C1` (centres undefined), for which the IC50 was 21.6 µM.
Turning to `O=C(Cn1cc(C(=O)C(F)(F)F)c2ccccc21)N1CCc2ccccc21`, the half-maximal inhibitory concentration (IC50) is 2.4 µM.
With `COc1cccc(-n2nnc(C(=O)Nc3ccc(C)c(C)c3)c2C)c1` the figure was > 50 µM (inactive); with `O=[N+]([O-])c1ccc(NCC2COc3ccccc3O2)c(Cl)c1` (centres undefined), > 50 µM (inactive).
With `COc1cccc(CNC(=O)c2ccc(CSc3nc4ccncc4n3Cc3ccccc3F)cc2)c1` the figure was 29.2 µM; with `Cc1ccc(C(=O)Nc2cc3c4c(c2)CC(=O)N4CCC3)cc1`, > 50 µM (inactive); with `CC1CC[C@@]2(NC1)O[C@H]1C[C@H]3[C@@H]4CC=C5C[C@@H](O)CC[C@]5(C)[C@H]4CC[C@]3(C)[C@H]1[C@@H]2C` (some centres undefined), 13 µM.
As for `O=[N+]([O-])c1ccc(NCc2ccc(-c3cccs3)s2)nc1`, the IC50 is 39.1 µM.
Turning to `Cc1ccc2c(c1)[C@]1(C(=O)N2)[C@@H]2C(=O)N(c3cccc(C(F)(F)F)c3)C(=O)[C@@H]2C2CCCN21` (some centres undefined), the IC50 is > 50 µM (inactive).
As to `COc1ccc(NC(=O)CSc2oc(-c3ccc(C)cc3)nc2S(=O)(=O)c2ccc(Br)cc2)c(OC)c1`, the IC50 was > 50 µM (inactive).
The same measure for `CCn1cnc2c1c(=O)n(CC(=O)NCc1ccccc1Cl)c(=O)n2Cc1ccccc1`: > 50 µM (inactive).
In the case of `O=c1ccc(-c2noc(Cc3cccc(Cl)c3)n2)c[nH]1`, the IC50 was > 50 µM (inactive).
The same measure for `O=C(c1ccc2occc2c1)N1CCC(S(=O)(=O)c2ccc(-c3ccco3)cc2)CC1`: > 50 µM (inactive).
Regarding `O=C(Cn1nc2c3c4c(sc3ncn2c1=O)CCCCC4)Nc1ccc(Cl)cc1F`, the IC50 was 1.49 µM.
With `CCC(C)c1ccc(O[C@@H]2O[C@@H]3COC(c4ccccc4)O[C@H]3[C@H](O)[C@H]2NC(C)=O)cc1` (some centres undefined) the figure was 18.5 µM; with `O=C(CCc1c[nH]c2ccccc12)Nc1ccc(N2CCOCC2)cc1`, 25.1 µM.
In the case of `CC(C)NS(=O)(=O)c1cccc2c(NC(=O)C(Cc3ccccc3)NC(=O)c3ccccc3)cccc12` (centres undefined), the IC50 is less than 0.05 µM.
The same measure for `Cc1nc(NCc2ccccn2)c2cc(-c3ccccc3)sc2n1`: 25.6 µM; for `CC(=O)c1cc2c(=O)c3c(C(=O)O)c(O)c(O)cc3oc2c(C(C)=O)c1-c1coc2cc(O)c(O)c(C(=O)O)c2c1=O`: 4.57 µM; for `COc1ccc(-c2cc3nc(C)cc(Nc4ccc(F)cc4)n3n2)cc1OC`: > 50 µM (inactive).
The same measure for `COC1=CC(=O)c2c(O)c(C)c(CC(C)=O)c(O)c2C1=O`: > 50 µM (inactive); for `COc1ccc(C2CC(c3ccccc3)N(C(=O)C3CC3)c3ncnn32)cc1` (centres undefined): > 50 µM (inactive).
With `Cn1nccc1C(=O)N1CCCCC1c1ncc(Cc2ccc(Cl)cc2)o1` (centres undefined) the figure was > 50 µM (inactive); with `COc1ccc(C(=O)Nc2cc3c4c(c2)C(C)C(=O)N4CCC3)cc1` (centres undefined), > 50 µM (inactive); with `Cc1cc(N2CCN(c3ncccn3)CC2)nc2ccc(NC(=O)/C=C/c3ccccc3Cl)cc12`, 4.88 µM.
As to `COc1ccc(C)cc1NC(=O)Cc1csc(NC(=O)c2ccc(=O)[nH]c2)n1`, the IC50 is > 50 µM (inactive).
With `O=C1Nc2ccccc2C(=O)C1C(c1ccc(Cl)cc1)C1C(=O)Nc2ccccc2C1=O` (centres undefined) the figure was > 50 µM (inactive); with `Cc1nnc(Sc2cc(C(=O)NCCN3CCCC3)c3ccccc3n2)s1`, > 50 µM (inactive); with `Cc1sc2ncn3c(=O)n(CC(=O)Nc4ccc(F)c(Cl)c4)nc3c2c1C`, 2.07 µM.
The same measure for `Cc1ccc(C)c(CSC2=NCCN2C(=O)c2ccco2)c1`: > 50 µM (inactive); for `CC(=O)Nc1ccc(S(=O)(=O)NCc2ccc(C(=O)NCCc3ccc(Cl)cc3)cc2)cc1`: 1.71 µM; for `Cc1nc2ccc(NC(=O)COc3ccccc3[N+](=O)[O-])cc2s1`: 9.57 µM.
With `COc1ccc(CCNC(=O)CCn2c(=O)c3ccccc3n(Cc3ccc(C)cc3)c2=O)cc1OC` the figure was 25.4 µM.
As for `COc1ccc(-c2nc(Cn3nnc(C(=O)Nc4ccc(C)c(C)c4)c3N)c(C)o2)cc1`, the IC50 was 2.53 µM.
In the case of `CCN(Cc1ccccc1)S(=O)(=O)c1ccc(C(=O)Nc2ccc3c(c2)OCCO3)cc1`, the IC50 is > 50 µM (inactive).
On to `COc1ccccc1-c1nc(-c2cn(-c3ccc(C)cc3)nn2)no1`, for which the IC50 was 6.47 µM.
The same measure for `O=C(CNc1nc(Nc2ccccc2F)nc(Nc2ccccc2F)n1)Nc1ccccc1`: 33.4 µM; for `COc1ccccc1-c1nc2c3c(C)c(C)n(-c4ccc(Br)cn4)c3ncn2n1`: 0.887 µM.
The same measure for `Cc1ccc2nc(CCc3ccc(NS(=O)(=O)c4cccc(Cl)c4C)cc3)[nH]c2c1`: 44.8 µM; for `Cc1ccc(C)c(Nc2cc(C)nc3nc(-c4ccco4)nn23)c1`: > 50 µM (inactive).
The same measure for `Cc1ccc(-c2nc(-c3ccccc3)c(S(=O)(=O)CC(=O)Nc3ccc(C)c(C)c3)[nH]2)cc1`: > 50 µM (inactive).
